Tests used:
[1] = molecular target: ACVR2B (Homo sapiens, UniProt Q13705); assay: radiometric protein kinase assay, affinity (Kd); format: binding
Procedure: (§1) The binding interaction profile of the compounds for ALK1–6, ACVR2A, ACVR2B, and TGFβR2 was determined by using radiometric protein kinase assay. For each compound, ten different concentrations (from 3 × 10^−6 M to 9 × 10^−11 M) were used in the protein kinase reaction. The inhibitor binding constants (Kd values) were calculated based on the 10 corresponding residual activities for each compound using Prism 5.04 (Graphpad, San Diego, CA, USA) according to the following formula:Kd = ([K][I]/[C]) where [K] = molar concentration of non-inhibitor bound kinase at equilibrium, [I] = molar concentration of the free inhibitor at equilibrium, [C] = molar concentration of kinase-inhibitor complex at equilibrium.

[2] = molecular target: ALK3 (Homo sapiens, UniProt P36894); assay: radiometric protein kinase assay, affinity (Kd); format: binding
Procedure: as §1

[3] = molecular target: ALK4 (Homo sapiens, UniProt P36896); assay: radiometric protein kinase assay, affinity (Kd); format: binding
Procedure: as §1

[4] = molecular target: ALK5 (Homo sapiens, UniProt P36897); assay: radiometric protein kinase assay, affinity (Kd); format: binding
Procedure: as §1

[5] = molecular target: ALK2 (Homo sapiens, UniProt Q04771); assay: radiometric protein kinase assay, affinity (Kd); format: binding
Procedure: as §1

[6] = tested on: Tg (fli:EGFP) zebrafish embryos; assay: Zebrafish DLAV and ISV formation; format: in vivo; settings: 0.5 µM, 20 h
Procedure: The Tg (fli:EGFP) zebrafish embryos were collected, and embryos with the same development stage (around 2.5 hpf) were selected. The eggs were randomly separated into different groups, and each group contained at least 20 embryos. The embryos were exposed to egg water containing 0.5 µM compounds or vehicle control (equal amount of DMSO) for 20 h at 28 °C. Next, all the eggs were dechorionated under the microscope using tweezers. The zebrafish embryos were fixed in 4% paraformaldehyde (PFA) for 2 h at room temperature and stored at 4 °C in phosphate-buffered saline (PBS). The entire zebrafish embryo was imaged with an Andor Dragonfly 500 spinning disk confocal (Oxford Instruments, Abingdon, UK) using a 488 nm laser. Five embryos in each group were randomly selected and scanned. The zebrafish vasculature formation of DLAV and ISV after 20 h treatment with compounds was quantified using ImageJ as previously described. The experiments were repeated twice with similar results.

[7] = tested on: EA.hy926 cells; assay: MTS assay; format: cell-based, human; settings: 0.5 μM, day 1, 2 and 3
Procedure: The MTS assay was used to measure the metabolic activity and viability of the cells. Around 5 × 10^3 EA.hy926 cells were seeded and cultured overnight in a 96-well plate and then cultured in the normal growth medium, which contained the indicated compounds and ligands. The MTS tetrazolium was measured according to the manufacturer’s protocol using an MTS Assay Kit (G3580, Promega). In brief, after exposing the cells in set conditions for 1, 2, and 3 days, 20 µL of MTS reagent was added to 100 μL cell growth medium per well and incubated for 4 h at 37 °C. Thereafter, absorbance at 490 nm was measured using a PerkinElmer […]. All the experiments were repeated at least three times, and representative experiments are shown.

[8] = tested on: constitutively active ALK1 (caALK1); assay: caALK1-induced BRE-Luc reporter activity in C2C12 cells; format: cell-based; settings: for inhibition of caALK1 compared to caALK2 (BRE-Luc): C2C12 cells
From the text: To further investigate and validate the selective inhibitory effects of OD16 and OD29 toward BMP9/ALK1 and BMP6/ALK2 signaling, we transfected C2C12 myoblast cells with constitutively active mutant ALK1 and ALK2 (caALK1 and caALK2). These constitutively active receptors signal in the absence of exogenous ligands and allow for a more direct assessment of inhibitory effects that are elicited by kinase receptor inhibitors. […]
Figure S4. OD29 and OD16 are two small molecule BMP type I receptors kinase inhibitors in C2C12 cells. Effects of vehicle control (DMSO), LDN−193189, OD16 or OD29 on BRE transcriptional luciferase reporter activity induced by the ectopic expression of caALK1 (A) or caALK2 (B) in C2C12 cells. Cells were incubated with the inhibitors in three different con-centrations (0.1 μM, 0.5 μM or 1 μM) for 16 hours. Representative results from three biologically independent experiments are shown as mean ± SD. NS, not significant; * p < 0.05, ** p < 0.005; *** p < 0.001.

[9] = molecular target: ALK1 (Homo sapiens, UniProt P37023); assay: radiometric protein kinase assay, affinity (Kd); format: binding
Procedure: The binding interaction profile of the compounds for ALK1–6, ACVR2A, ACVR2B, and TGFβR2 was determined by using radiometric protein kinase assay. For each compound, ten different concentrations (from 3 × 10^−6 M to 9 × 10^−11 M) were used in the protein kinase reaction.

[10] = tested on: BMP9-induced ID1, ID3, and SMAD6 mRNA expression; assay: RT-qPCR of BMP9-induced ID1, ID3 and SMAD6 mRNA in EA.hy926 cells; format: cell-based, human; settings: 0.5 µM compound, BMP9 1 ng/mL
Procedure: EA.hy926 cells or HUVECs were seeded in 6-well plates and cultured until they reached 80% confluence. The medium was replaced with a serum-free medium for a 4 h starvation. For EA.hy926 cells, the compounds were added at a final concentration of 0.5 μM for 30 min, followed by BMP9 (1 ng/mL), TGF-β2 (1 ng/mL), or vehicle control addition and cultured for another 3 h before the cells were harvested. To investigate VEGF-induced cellular response, HUVECs were exposed to VEGF (40 ng/mL) for 1 h after 30 min pre-treatment with the compounds.
After samples were collected, total RNA was isolated and purified using the NucleoSpin RNA II kit (740955, BIOKE, Leiden, the Netherlands), following the manufacturer’s instructions. Then, the mRNA was used as a template to synthesize cDNA by performing reverse transcription with the RevertAid First Strand cDNA Synthesis Kit (K1621, ThermoFisher Scientific). Gene expression levels were determined by RT-qPCR analysis using the GoTaq qPCR Master Mix (A6001, Promega, Madison, WI, USA) and normalized to GAPDH expression. All the experiments were repeated three times, and results from three biologically independent experiments are shown.

[11] = tested on: EA.hy926 cells; assay: Proliferation assay (IncuCyte confluence); format: cell-based, human; settings: 0.5 µM, 3 days
Procedure: Around 4 × 10^3 EA.hy926 cells per well were seeded in a 96-well microplate Essen ImageLock™ in 200 µL of culture medium containing the indicated concentrations of compounds and ligands, and the plate was directly inserted into the IncuCyte ZOOM instrument for scanning. Images of each well were acquired every 4 h for 3 days. The real-time cell confluence in each well was analyzed after normalizing to the initial cell density. All the experiments were repeated at least three times, and representative results are shown.

Chain of ALK2 (Q04771 21-509): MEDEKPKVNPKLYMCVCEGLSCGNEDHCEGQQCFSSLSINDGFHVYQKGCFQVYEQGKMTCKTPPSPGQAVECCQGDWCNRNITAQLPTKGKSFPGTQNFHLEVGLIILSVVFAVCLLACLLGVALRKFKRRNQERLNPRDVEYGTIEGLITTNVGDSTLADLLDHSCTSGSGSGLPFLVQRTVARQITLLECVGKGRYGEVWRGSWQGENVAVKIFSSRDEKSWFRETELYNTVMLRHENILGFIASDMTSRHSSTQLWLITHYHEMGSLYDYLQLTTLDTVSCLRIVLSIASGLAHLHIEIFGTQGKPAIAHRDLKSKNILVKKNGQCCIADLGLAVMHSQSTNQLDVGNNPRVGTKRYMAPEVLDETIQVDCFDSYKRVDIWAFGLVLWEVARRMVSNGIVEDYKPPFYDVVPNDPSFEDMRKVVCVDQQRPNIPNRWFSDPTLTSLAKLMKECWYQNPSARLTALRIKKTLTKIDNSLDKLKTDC
Chain of ALK4 (P36896 24-505): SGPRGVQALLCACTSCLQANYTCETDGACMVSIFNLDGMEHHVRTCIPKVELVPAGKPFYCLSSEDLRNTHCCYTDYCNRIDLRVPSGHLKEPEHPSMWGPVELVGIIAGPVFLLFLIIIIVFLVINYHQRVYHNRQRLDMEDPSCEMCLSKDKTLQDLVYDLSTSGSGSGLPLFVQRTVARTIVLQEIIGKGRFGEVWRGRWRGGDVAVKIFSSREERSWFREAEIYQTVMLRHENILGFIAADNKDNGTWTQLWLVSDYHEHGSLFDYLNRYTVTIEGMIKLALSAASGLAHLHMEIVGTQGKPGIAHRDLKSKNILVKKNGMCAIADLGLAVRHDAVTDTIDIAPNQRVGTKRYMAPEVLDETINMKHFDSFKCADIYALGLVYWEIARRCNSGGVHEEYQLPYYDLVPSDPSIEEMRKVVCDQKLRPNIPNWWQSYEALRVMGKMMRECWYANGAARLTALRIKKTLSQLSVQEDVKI
Chain of ALK1 (P37023 22-503): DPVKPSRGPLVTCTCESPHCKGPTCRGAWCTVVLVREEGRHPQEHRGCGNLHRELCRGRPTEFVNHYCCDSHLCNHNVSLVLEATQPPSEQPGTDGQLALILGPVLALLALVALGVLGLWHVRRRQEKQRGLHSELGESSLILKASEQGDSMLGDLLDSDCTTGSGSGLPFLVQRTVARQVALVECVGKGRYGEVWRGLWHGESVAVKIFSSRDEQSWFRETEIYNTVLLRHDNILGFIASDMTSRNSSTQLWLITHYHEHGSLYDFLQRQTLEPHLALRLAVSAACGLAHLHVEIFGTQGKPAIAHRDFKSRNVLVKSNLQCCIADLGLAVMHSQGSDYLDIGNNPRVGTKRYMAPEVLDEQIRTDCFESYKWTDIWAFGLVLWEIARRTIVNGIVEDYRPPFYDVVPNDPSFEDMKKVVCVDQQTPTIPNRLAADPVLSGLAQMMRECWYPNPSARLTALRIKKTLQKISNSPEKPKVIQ
Chain of ACVR2B (Q13705 19-512): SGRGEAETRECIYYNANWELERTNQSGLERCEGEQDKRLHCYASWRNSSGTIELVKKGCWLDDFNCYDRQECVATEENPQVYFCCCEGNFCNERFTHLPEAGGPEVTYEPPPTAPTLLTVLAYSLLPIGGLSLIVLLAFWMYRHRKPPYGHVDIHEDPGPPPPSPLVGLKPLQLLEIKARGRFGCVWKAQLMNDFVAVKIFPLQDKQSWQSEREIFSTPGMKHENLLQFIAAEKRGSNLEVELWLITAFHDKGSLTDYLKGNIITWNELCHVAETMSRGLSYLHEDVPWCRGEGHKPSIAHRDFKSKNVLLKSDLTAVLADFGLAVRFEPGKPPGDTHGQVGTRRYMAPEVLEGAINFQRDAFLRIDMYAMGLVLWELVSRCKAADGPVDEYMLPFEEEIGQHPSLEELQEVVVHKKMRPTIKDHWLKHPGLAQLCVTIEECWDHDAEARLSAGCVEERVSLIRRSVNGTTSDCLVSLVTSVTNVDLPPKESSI
Chain of ALK5 (P36897 34-503): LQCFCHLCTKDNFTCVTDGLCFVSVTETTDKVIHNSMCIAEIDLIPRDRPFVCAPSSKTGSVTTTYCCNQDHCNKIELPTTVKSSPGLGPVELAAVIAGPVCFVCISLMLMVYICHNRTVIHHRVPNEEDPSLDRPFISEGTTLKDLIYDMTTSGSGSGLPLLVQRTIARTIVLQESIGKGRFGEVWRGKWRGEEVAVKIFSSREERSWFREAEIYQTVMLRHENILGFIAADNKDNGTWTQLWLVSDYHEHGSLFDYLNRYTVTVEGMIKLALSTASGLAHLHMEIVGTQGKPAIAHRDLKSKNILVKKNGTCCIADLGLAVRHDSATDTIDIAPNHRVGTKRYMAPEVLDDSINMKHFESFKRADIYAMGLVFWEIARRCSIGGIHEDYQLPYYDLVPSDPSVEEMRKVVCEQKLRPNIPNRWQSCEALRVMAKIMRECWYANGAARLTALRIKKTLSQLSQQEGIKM
Chain of ALK3 (P36894 24-532): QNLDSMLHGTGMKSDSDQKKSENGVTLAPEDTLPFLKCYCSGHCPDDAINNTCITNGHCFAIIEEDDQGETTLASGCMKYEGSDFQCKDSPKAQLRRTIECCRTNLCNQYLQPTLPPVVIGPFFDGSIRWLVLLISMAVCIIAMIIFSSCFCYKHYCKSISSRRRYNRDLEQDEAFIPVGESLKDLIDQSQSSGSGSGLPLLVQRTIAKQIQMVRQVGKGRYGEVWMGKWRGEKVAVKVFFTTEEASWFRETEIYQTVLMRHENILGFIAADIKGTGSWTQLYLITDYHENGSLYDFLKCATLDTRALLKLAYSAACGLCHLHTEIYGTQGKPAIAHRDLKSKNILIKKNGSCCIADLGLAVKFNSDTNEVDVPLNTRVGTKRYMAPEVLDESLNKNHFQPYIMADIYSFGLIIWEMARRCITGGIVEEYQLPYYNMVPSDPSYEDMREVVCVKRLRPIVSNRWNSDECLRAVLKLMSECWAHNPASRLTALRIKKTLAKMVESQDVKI

Structure (SMILES) | Kd [1] | Kd [2] | Kd [3] | Kd [4] | Kd [5] | effect on DLAV and ISV formation (images) [6] | effect on total vessel length and number of junctions (DLAV and ISV, quantified) [6] | effect on EA.hy926 cell viability (MTS) [7] | inhibition of caALK1 compared to caALK2 (BRE-Luc) [8] | Kd [9] | effect on BMP9-induced ID1, ID3 and SMAD6 mRNA expression [10] | effect on EC proliferation (real-time confluence) [11] | effect on DLAV formation [6] | effect on ISV development [6] | effect on caALK1-induced BRE-Luc reporter activity ([8]; C2C12 cells, 0.1, 0.5 or 1 μM, 16 hours)
CN1CCC(=O)NCCNc2ccn3ncc(c3n2)-c2cccc(c2)C1 [OD29] | 558 nM | 1010 nM | 652 nM | 1010 nM | 10 nM | strong negative impact | significantly inhibited | no significant effects | higher sensitivity and more inhibitory potential against caALK1 compared to caALK2 | 6 nM | inhibited | LDN-193189 strongly inhibited ECs proliferation, unlike OD16 and OD29 | – | – | –
CN1CCc2cccc(c2)Nc2nccc(n2)N2CCCc3cc(ccc32)C1 [OD16] | 220 nM | 55 nM | 270 nM | 360 nM | 17 nM | – | significantly inhibited | no significant effects | higher sensitivity and more inhibitory potential against caALK1 compared to caALK2 | 20 nM | inhibited | LDN-193189 strongly inhibited ECs proliferation, unlike OD16 and OD29 | strongly delayed | slightly inhibited | –
c1ccc2c(-c3cnn4cc(-c5ccc(N6CCNCC6)cc5)cnc34)ccnc2c1 [LDN-193189, reference compound] | – | – | – | – | – | did not exhibit apparent defects | showed no effects | markedly attenuated | No difference in inhibition between ALK1 and ALK2 | – | inhibited | strongly inhibited | – | – | in a dose-dependent manner attenuated
CNC(=O)c1ccccc1Sc1ccc2c(/C=C/c3ccccn3)n[nH]c2c1 [Axitinib, reference compound] | – | – | – | – | – | strong defects in both DLAV and ISV formation | strongly inhibited | no significant effects | – | – | – | – | – | – | –
